We go through one compound from patent US8802702B2, “Compounds for reducing drug resistance and uses thereof” (The General Hospital Corporation, priority 2009, dated 2014).

For one data set, the system named is OVCAR8TR cells. The experiment in a line: Reversal of drug resistance, cytotoxicity (MTT) assay in OVCAR8TR. The format is cell-based, human. To be noted: Paclitaxel. The procedure:
FIGS. 1 (a-b) are graphs that depict the effects of NSC23925 on drug sensitivity in ovarian cancer cells; 1(a) depicts the effects of NSC23925 on sensitive (SKOV-3) and resistant (SKOV-3TR) cells; 1(b) depicts the effects of NSC23925 on sensitive (OVCAR8) and resistant (OVCAR8TR) cells. Cells were treated with the paclitaxel and NSC23925 in RPMI1640 complete media at the indicated concentrations. The relative sensitivity of each line to paclitaxel was determined by MTT assay, as described below in the Examples section, 6 days post treatment. A: Reversal of paclitaxel resistance by NSC23925 in SKOV-3TR cells. B: Reversal of paclitaxel resistance by NSC23925 in OVCAR8TR cells.
(§1) Drug cytotoxicity was assessed in vitro using the MTT assay. SKOV-3 and SKOV-3TR cells were used herein. Briefly, 2×10^3 cells per well were plated in 96-well plates in culture medium (RPMI 1640 supplemented with 10% fetal bovine serum and penicillin/streptomycin) containing increasing concentrations of drug. After 7 days of culture, 10 μl MTT (5 mg/ml in PBS, obtained from Sigma) were added to each well and the plates were incubated for 4 h. The resulting formazan product was dissolved with acid-isopropanol and the absorbance at a wavelength of 490 nm (A490) was read on a SPECTRAmax® Microplate Spectrophotometer (Molecular Devices, Sunnyvale, Calif.). The absorbance values were normalized by assigning the value of the control line in the medium without drug to 1.0 and the value of the no cell control to 0. Experiments were performed in triplicate.

The subject of data set [1] is SKOV-3 and SKOV-3TR cells. The experiment in a line: Cytotoxicity of NSC23925 alone (MTT assay), SKOV-3/SKOV-3TR. The format is cell-based, human. On the procedure:
as §1, with “Drug cytotoxicity was determined by MTT assay. […] Cells were treated with the NSC23925 in RPMI1640 complete media at the indicated concentrations. The relative sensitivity of each line to NSC23925 was determined by MTT assay. A: Nonspecific toxicity of NSC23925 on SKOV3 vs SKOV-3TR. B: Nonspecific toxicity of NSC23925 on OVCAR8 vs OVCAR8TR. Drug” for “Drug”, “After 7 days of culture, 10 μl MTT (5 mg/ml in PBS, obtained from Sigma) were added to each well and the plates were incubated for 4 h.” left out
(Formazan colour is commonly taken as a measure of viable cells.)

The subject of data set [2] is Pgp1 expression in SKOV-3TR cells. The experiment in a line: Pgp1 expression by Western blot. The format is cell-based, human. The following applies: NSC23925 up to 10 μM for 48 h. (A western blot detects proteins with antibodies after separation by electrophoresis.)
In data set [3] the test system is MCF-7 MX cells (express BCRP, not Pgp1). Put plainly: Reversal of drug resistance in non-Pgp1 MDR cells expressing BCRP. The format is cell-based, human. The source says: Dr. Efstathios Gonos (Institute of Biological Research & Biotechnology, Athens, Greece) provided the doxorubicin resistant U-2OS R2 (referred in the text below as U-2OSDR), KHOS R2 cell lines. Dr. Stephen. Howell (The University of California Medical Center, San Diego) provided the cisplatin-resistant ovarian cancer IGROV1cp and 2008 cp70 cell lines. Dr. Erasmus Schneider (Wadsworth Center, Albany) provided the mitoxantrane resistant breast cancer MCF-7/MX cell line. Dr. Katia Scotlandi (Institute Orthopedics Rizzoli, Italy) provided ET-743 resistant TC-ET 6 nM and TC-ET 12 nM cell lines.

Data set [4] concerns OVCAR8 and OVCAR8TR cells. The experiment in a line: Cytotoxicity of NSC23925 alone (MTT assay), OVCAR8/OVCAR8TR. Format: cell-based, human. The procedure: as §1, with “Cells were treated with the NSC23925 in RPMI1640 complete media at the indicated concentrations. The relative sensitivity of each line to NSC23925 was determined by MTT assay. A: Nonspecific toxicity of NSC23925 on SKOV3 vs SKOV-3TR. B: Nonspecific toxicity of NSC23925 on OVCAR8 vs OVCAR8TR. Drug” for “Drug”

The target in data set [5] is purified recombinant human Pgp1 membrane protein (Homo sapiens, UniProt P08183). The procedure: Luminescence was read on a BMG LABTECH Polarstar Optima Luminometer. The decrease in luminescence of untreated samples compared to samples plus Na3VO4(ARLUbasal) represents basal Pgp1 ATPase activity. […] E: Effect of NSC23925 on expression of Pgp1 in paclitaxel resistant cells. The paclitaxel resistant cell line SKOV-3TR was treated with different concentration of NSC23925 for 48 h. Equal amounts (20 μg protein) of total cell lysates were used for each sample. Pgp1 expression was determined by Western blot as described in the Examples section below.
The Pgp-Glo™ Assay Systems (Promega) provide the necessary reagents for performing luminescent P-glycoprotein (Pgp)-ATPase assays. The ATPase assay provides a rapid, […], compound-independent measure of the concentration-dependence of any interaction of a drug with Ppg1. […] Luminescence was read on a BMG LABTECH Polarstar Optima Luminometer. The decrease in luminescence of NT samples compared to samples plus Na3VO4 (ΔRLUbasal) represents basal Pgp-ATPase activity.
Pgp-ATPase assay is a valuable screening tool for determining if a drug interacts with Pgp.

Setting [6] is: <5-10 μM NSC23925 alone, cells lack Pgp1.

Chain of purified recombinant human Pgp1 membrane protein (P08183 whole entry): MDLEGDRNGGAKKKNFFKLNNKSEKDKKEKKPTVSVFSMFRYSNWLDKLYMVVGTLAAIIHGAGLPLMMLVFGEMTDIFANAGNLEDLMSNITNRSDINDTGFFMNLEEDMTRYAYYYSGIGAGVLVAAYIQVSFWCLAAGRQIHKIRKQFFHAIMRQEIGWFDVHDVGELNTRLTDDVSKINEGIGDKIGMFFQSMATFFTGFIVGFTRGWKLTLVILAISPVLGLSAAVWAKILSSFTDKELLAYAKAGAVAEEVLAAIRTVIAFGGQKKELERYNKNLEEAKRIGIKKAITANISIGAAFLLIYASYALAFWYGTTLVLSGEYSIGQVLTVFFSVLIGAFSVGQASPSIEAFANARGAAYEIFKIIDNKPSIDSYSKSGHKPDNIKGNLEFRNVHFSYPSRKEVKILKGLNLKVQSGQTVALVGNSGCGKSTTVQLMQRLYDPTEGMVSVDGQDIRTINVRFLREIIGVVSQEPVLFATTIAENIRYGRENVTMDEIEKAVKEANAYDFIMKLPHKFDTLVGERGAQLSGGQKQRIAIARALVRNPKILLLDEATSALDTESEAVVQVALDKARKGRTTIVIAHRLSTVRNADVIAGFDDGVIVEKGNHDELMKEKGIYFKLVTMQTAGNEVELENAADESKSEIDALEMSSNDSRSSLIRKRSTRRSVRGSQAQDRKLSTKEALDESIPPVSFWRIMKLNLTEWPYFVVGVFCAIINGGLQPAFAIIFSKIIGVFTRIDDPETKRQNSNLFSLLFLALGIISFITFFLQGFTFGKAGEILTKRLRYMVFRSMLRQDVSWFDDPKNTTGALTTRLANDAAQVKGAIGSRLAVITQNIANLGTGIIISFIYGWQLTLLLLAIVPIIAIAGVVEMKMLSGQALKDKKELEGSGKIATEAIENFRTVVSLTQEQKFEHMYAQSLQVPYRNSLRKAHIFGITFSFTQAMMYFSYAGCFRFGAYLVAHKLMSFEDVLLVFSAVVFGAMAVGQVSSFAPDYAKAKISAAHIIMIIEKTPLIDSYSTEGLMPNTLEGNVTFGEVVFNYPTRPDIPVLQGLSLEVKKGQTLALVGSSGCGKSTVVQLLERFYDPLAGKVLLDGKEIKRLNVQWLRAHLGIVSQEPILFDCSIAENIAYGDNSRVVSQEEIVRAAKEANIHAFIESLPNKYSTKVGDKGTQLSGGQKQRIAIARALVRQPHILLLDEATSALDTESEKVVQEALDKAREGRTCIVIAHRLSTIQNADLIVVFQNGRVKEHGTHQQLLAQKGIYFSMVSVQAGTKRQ

On to `COc1ccc(-c2cc(C(O)C3CCCCN3)c3ccccc3n2)cc1` (stereo not drawn) [NSC23925, (2-(4-methoxyphenyl)quinolin-4-yl)(piperidin-2-yl)methanol], for which the IC50 in the data set with OVCAR8TR cells (Homo sapiens, add NSC23925 0.1 μM, read-out: OVCAR8TR IC50 of Paclitaxel) was determined as 127 ± 27 nM; in data set [1] (Homo sapiens, SKOV-3/SKOV-3TR, single agent, read-out: IC50 for NSC23925 (proliferation)) it was 8 µM; in data set [4] (Homo sapiens, OVCAR-8, OVCAR8/OVCAR8TR, single agent, read-out: IC50 for NSC23925 (proliferation)), 25 µM. Further, the “fold-reversal of drug resistance, OVCAR8TR” value with OVCAR8TR cells (add NSC23925 0.5 μM) is “(4.7) fold”. For the same compound, in data set [1] (setting [6]), the “Cytotoxic effect of NSC23925 alone in parental SKOV-3” value is “no cytotoxic effect”. Further, in data set [1] (Pgp1-overexpressing SKOV-3TR cells, 72 hours, MTT), the “Effect of verapamil on the cytotoxic effect of NSC23925” value is listed as “did not influence the cytotoxic effect”. The “Doses at which NSC23925 by itself is noncytotoxic” value in data set [1] (both sensitive and resistant cell lines) is reported as “up to 10 μM”. Further, in data set [1] (concluded from matched cell line IC50s and verapamil co-treatment), the “Pgp1 transport substrate status” value is “not a substrate of Pgp1”. The “Expression level of Pgp1” value in data set [2] is “not affected”. The “Reversal of drug resistance in MCF-7 MX cells” value in data set [3] is “unable to reverse drug resistance”. Moreover, the “Cytotoxic effect of NSC23925 alone in parental OVCAR8” value in data set [4] (setting [6]) is “no cytotoxic effect”. For the same compound, the “Stimulation of Pgp-ATPase activity” value in data set [5] is listed as greater than 30%.
